Measurements from ChEMBL document CHEMBL5131520, “Synthesis and Antitumor Activity of Diosgenin Hydroxamic Acid and Quaternary Phosphonium Salt Derivatives” (ACS Med Chem Lett, 2022).
Structures can show the parent of a compound that is named as a salt.

What was measured:
NCI-H358 = assay: Antiproliferative activity against human NCI-H358 cells assessed as inhibition of cell growth incubated for 48 hrs by CCK8 assay; type: functional, cell-based; details: NCI-H358, 48 h
[1] = Water solubility of compound; type: physicochemical; details: buffer
HCT-116 = assay: Antiproliferative activity against human HCT-116 cells assessed as inhibition of cell growth incubated for 48 hrs by CCK8 assay; type: functional, cell-based; details: HCT-116, 48 h
SW-620 = assay: Antiproliferative activity against human SW-620 cells assessed as inhibition of cell growth incubated for 48 hrs by CCK8 assay; type: functional, cell-based; details: SW-620, 48 h
ASPC1 = assay: Antiproliferative activity against human ASPC1 cells assessed as inhibition of cell growth incubated for 48 hrs by CCK8 assay; type: functional, cell-based; details: ASPC1, 48 h

| SMILES | IC50 (NCI-H358) | solubility [1] | IC50 (HCT-116) | IC50 (SW-620) | IC50 (ASPC1) |
| --- | --- | --- | --- | --- | --- |
| C[C@@H]1CC[C@@]2(OC1)O[C@H]1C[C@H]3[C@@H]4CC=C5C[C@@H](OC(=O)CCCC[P+](c6ccccc6)(c6ccccc6)C6CCCCC6)CC[C@]5(C)[C@H]4CC[C@]3(C)[C@H]1[C@@H]2C.[Br-] | 3.52 µM | Soluble | 4.15 µM | 0.873 µM | 0.313 µM |
| C[C@@H]1CC[C@@]2(OC1)O[C@H]1C[C@H]3[C@@H]4CC=C5C[C@@H](OC(=O)CCCC[P+](c6ccccc6)(c6ccccc6)c6cccc(-c7ccccc7)c6)CC[C@]5(C)[C@H]4CC[C@]3(C)[C@H]1[C@@H]2C.[Br-] | 3.66 µM | Soluble | 4.22 µM | 1.16 µM | 0.29 µM |
| C[C@@H]1CC[C@@]2(OC1)O[C@H]1C[C@H]3[C@@H]4CC=C5C[C@@H](OC(=O)CCCC[P+](C6CCCCC6)(C6CCCCC6)C6CCCCC6)CC[C@]5(C)[C@H]4CC[C@]3(C)[C@H]1[C@@H]2C.[Br-] | 4.04 µM | Soluble | 4 µM | 0.448 µM | 0.185 µM |
| CCCC[P+](CCCC)(CCCC)CCCCC(=O)O[C@H]1CC[C@@]2(C)C(=CC[C@H]3[C@@H]4C[C@@H]5O[C@]6(CC[C@@H](C)CO6)[C@@H](C)[C@@H]5[C@@]4(C)CC[C@@H]32)C1.[Br-] | 2.18 µM | Soluble | 3.99 µM | 1.17 µM | 1.09 µM |
| C[C@@H]1CC[C@@]2(OC1)O[C@H]1C[C@H]3[C@@H]4CC=C5C[C@@H](OC(=O)CCCC[P+](c6ccc(Cl)cc6)(c6ccc(Cl)cc6)c6ccc(Cl)cc6)CC[C@]5(C)[C@H]4CC[C@]3(C)[C@H]1[C@@H]2C.[Br-] | 1.71 µM | Soluble | 4.32 µM | 6.8 µM | 0.652 µM |
| C[C@@H]1CC[C@@]2(OC1)O[C@H]1C[C@H]3[C@@H]4CC=C5C[C@@H](OC(=O)CCCC[P+](c6ccccc6)(c6ccccc6)c6ccccn6)CC[C@]5(C)[C@H]4CC[C@]3(C)[C@H]1[C@@H]2C.[Br-] | 3.54 µM | Soluble | 4.25 µM | 0.778 µM | 0.648 µM |
| C[C@@H]1CC[C@@]2(OC1)O[C@H]1C[C@H]3[C@@H]4CC=C5C[C@@H](OC(=O)CCCC[P+](c6ccc(F)cc6)(c6ccc(F)cc6)c6ccc(F)cc6)CC[C@]5(C)[C@H]4CC[C@]3(C)[C@H]1[C@@H]2C.[Br-] | 3.82 µM | Soluble | 4.16 µM | 1.42 µM | 0.728 µM |
| CCCCCCCC[P+](CCCCCCCC)(CCCCCCCC)CCCCC(=O)O[C@H]1CC[C@@]2(C)C(=CC[C@H]3[C@@H]4C[C@@H]5O[C@]6(CC[C@@H](C)CO6)[C@@H](C)[C@@H]5[C@@]4(C)CC[C@@H]32)C1.[Br-] | 27.1 µM | Soluble | 31.4 µM | 29 µM | 7.63 µM |
| COc1cccc2c1C(=O)c1c(O)c3c(c(O)c1C2=O)C[C@@](O)(C(=O)CO)C[C@@H]3O[C@H]1C[C@H](N)[C@H](O)[C@H](C)O1 [DOXORUBICIN HYDROCHLORIDE] | < 5 µM |  | > 1.25 µM | < 5 µM | < 5 µM |

Continued, values first:

| IC50 (NCI-H358) | solubility [1] | IC50 (HCT-116) | IC50 (SW-620) | IC50 (ASPC1) | SMILES |
| --- | --- | --- | --- | --- | --- |
| 9.54 µM | Soluble | 34.4 µM | 6.8 µM | 4.96 µM | C[C@@H]1CC[C@@]2(OC1)O[C@H]1C[C@H]3[C@@H]4CC=C5C[C@@H](OC(=O)c6cccc(C(=O)NO)c6)CC[C@]5(C)[C@H]4CC[C@]3(C)[C@H]1[C@@H]2C |
| 35.5 µM | Soluble | 35.8 µM | > 40 µM | 9.29 µM | C[C@@H]1CC[C@@]2(OC1)O[C@H]1C[C@H]3[C@@H]4CC=C5C[C@@H](OC(=O)c6nccnc6C(=O)NO)CC[C@]5(C)[C@H]4CC[C@]3(C)[C@H]1[C@@H]2C |
| 36.8 µM | Soluble | 39 µM | 16.9 µM | 11.4 µM | C[C@@H]1CC[C@@]2(OC1)O[C@H]1C[C@H]3[C@@H]4CC=C5C[C@@H](OC(=O)/C=C/C(=O)NO)CC[C@]5(C)[C@H]4CC[C@]3(C)[C@H]1[C@@H]2C |
| 15.2 µM | Soluble | 32.8 µM | 10.7 µM | 7.8 µM | Cc1cc(C(=O)NO)cc(C(=O)O[C@H]2CC[C@@]3(C)C(=CC[C@H]4[C@@H]5C[C@@H]6O[C@]7(CC[C@@H](C)CO7)[C@@H](C)[C@@H]6[C@@]5(C)CC[C@@H]43)C2)c1 |
| 4.32 µM | Soluble | 32.5 µM | 2.43 µM | 2.14 µM | C[C@@H]1CC[C@@]2(OC1)O[C@H]1C[C@H]3[C@@H]4CC=C5C[C@@H](OC(=O)CCCC(=O)NO)CC[C@]5(C)[C@H]4CC[C@]3(C)[C@H]1[C@@H]2C |
| 12.6 µM | Soluble | 38.8 µM | 1.92 µM | 2.31 µM | C[C@@H]1CC[C@@]2(OC1)O[C@H]1C[C@H]3[C@@H]4CC=C5C[C@@H](OC(=O)CCCCC(=O)NO)CC[C@]5(C)[C@H]4CC[C@]3(C)[C@H]1[C@@H]2C |
| 7.47 µM | Soluble | 31.8 µM | 5.22 µM | 7.99 µM | C[C@@H]1CC[C@@]2(OC1)O[C@H]1C[C@H]3[C@@H]4CC=C5C[C@@H](OC(=O)CCC(=O)NO)CC[C@]5(C)[C@H]4CC[C@]3(C)[C@H]1[C@@H]2C |
| 23.1 µM | Soluble | > 40 µM | 11.1 µM | 22.9 µM | C[C@@H]1CC[C@@]2(OC1)O[C@H]1C[C@H]3[C@@H]4CC=C5C[C@@H](OC(=O)CCCCCCC(=O)NO)CC[C@]5(C)[C@H]4CC[C@]3(C)[C@H]1[C@@H]2C |
| 13.6 µM | Soluble | 10.1 µM | 9.59 µM | 7.44 µM | C[C@@H]1CC[C@@]2(OC1)O[C@H]1C[C@H]3[C@@H]4CC=C5C[C@@H](OC(=O)CCCC[P+](C)(C)C)CC[C@]5(C)[C@H]4CC[C@]3(C)[C@H]1[C@@H]2C.[Br-] |
| 3.51 µM | Soluble | 5 µM | 4.39 µM | 2.62 µM | CC[P+](CC)(CC)CCCCC(=O)O[C@H]1CC[C@@]2(C)C(=CC[C@H]3[C@@H]4C[C@@H]5O[C@]6(CC[C@@H](C)CO6)[C@@H](C)[C@@H]5[C@@]4(C)CC[C@@H]32)C1.[Br-] |
| 10.4 µM | Soluble | 33.4 µM | 23.4 µM | 15 µM | C[C@@H]1CC[C@@]2(OC1)O[C@H]1C[C@H]3[C@@H]4CC=C5C[C@@H](OC(=O)CCCCCCCCC(=O)NO)CC[C@]5(C)[C@H]4CC[C@]3(C)[C@H]1[C@@H]2C |
| > 40 µM |  | 31.4 µM | > 40 µM | 63.1 µM | C[C@@H]1CC[C@@]2(OC1)O[C@H]1C[C@H]3[C@@H]4CC=C5C[C@@H](O)CC[C@]5(C)[C@H]4CC[C@]3(C)[C@H]1[C@@H]2C [DISOGENIN] |
